Results on eight compounds are retold here after patent US4968686A, “Acyclic pyrrolo [2,3-d]pyrimidine analogs as antiviral agents” (The Regents of The University of Michigan, priority 1989, dated 1990).

SMILES strings stand for the structures.

Data set [1] is described as follows: Visual cytotoxicity scoring in HFF cells. Format: cell-based. The conditions noted are these: human, Table 1, at time of HCMV plaque enumeration, read-out: 50% Inhibitory Concentration Cytotoxicity HFF (visual). The text has this: (§1) Cytotoxicity produced in HFF and BSC-1 cells was estimated by visual scoring of cells not affected by virus infection in the HCMV and HSV-1 plaque reduction assays. Cytopathology was estimated at 35- and 60-fold magnification and scored on a zero to four plus basis. Wells were scored on the day of staining.
(§2) Dose-response relationships were used to compare drug effects. These were constructed by linearly regressing the percent inhibition of parameters derived in the preceding sections against log drug concentrations. The 50% inhibitory (I50) concentrations were calculated from the regression lines using the methods described by Goldstein. See Goldstein, A., Biostatistics: An Introductory Text, MacMillan, N.Y., 1964, pp. 156-161. Along with the I50 concentration for visual cytotoxicity, the averaged I50 concentrations are compared to I50 concentrations for inhibition for HCMV or HSV-1 replication. Compounds for which the ratio of cytotoxicity I50 concentrations to antiviral I50 concentrations (in vitro therapeutic index) were greater than 10, were considered for further study.

Data set [2] has as its system HCMV. Description: HCMV plaque (focus) reduction assay. The conditions noted are these: Human betaherpesvirus 5; Table 1; HFF cells; read-out: 50% Inhibitory Concentration HCMV Plaque. Format: cell-based.
Description: (§3) The 148 strain of HSV-1 was used in most experiments and was provided by Dr. T. W. Schafer of Schering corporation. The HF strain of HSV-1 was used in selected experiments and was obtained from Dr. G. H. Cohen, University of Pennsylvania. The Towne strain, plaque-purified isolate Po, of HCMV was a gift of Dr. Mark Stinski, University of Iowa.
(§4) HCMV was titered in 24-well cluster dishes which were planted to contain 5×10^4 cells/well, grown as described above. When the cells were 70 to 80% confluent, 0.2 ml of the virus suspension was added per wall and adsorbed as described above. At least three ten-fold dilutions of each preparation were used. Following virus adsorption, the cell sheets were overlayed with 0.5% methocel (4000 CPS) in maintenance medium [MEM(E) with 1.1 gm/liter NaHCO3, 100 units/ml penicillin G, 100 μg/ml streptomycin, and 5% fetal bovine serum]. The cultures were incubated in a humidified atmosphere of 4% CO2 -96% air. Viral foci were visible 5 to 7 days after infection using at least 10-fold magnification. Cells were fixed and stained by a 10-minute exposure to a 0.1% solution of crystal violet in 20% methanol 7 to 12 days after infection. Microscopic foci were enumerated at 20-fold magnification using a Nikon Profile Projector.
(§5) The effect of compounds of the replication of HCMV has been measured using both a plaque (focus) reduction assay and a titer (yield) reduction assay. For the former, HFF cells in 24-well culture dishes were infected with approximately 50 p.f.u. of HCMV per well using the procedures detailed above. Compounds dissolved in growth medium were added in three to six selected concentrations to triplicate wells following virus adsorption. Following incubation at 37° C. for 7 to 10 days, cell sheets were fixed, stained and microscopic foci were enumerated as described above. Drug effects were calculated as a percentage of reduction in number of foci in the presence of each drug concentration compared to the number observed in the absence of drug. DHPG (ganciclovir) was used as a positive control in all experiments.
as §2

The test system of data set [3] is HCMV. Description: HCMV titer (yield) reduction assay. The following applies: Human betaherpesvirus 5; for IC90: Table 1, I90, HFF cells, read-out: HCMV Yield, 90% inhibitory concentration (I90). Format: cell-based.
Description: as §3, §4
(§6) For titer reduction analysis, HFF cells were planted as described above in 24-well cluster dishes or in 25 cm^2 flasks. When monolayers were approximately 70% confluent, HCMV was added at a m.o.i. of 0.5 p.f.u. per cell and adsorbed as detailed above. Compounds dissolved in growth medium were added in one or one-half logarithm10 dilutions and incubation continued at 37° C. After 7 to 10 days of incubation, culture dishes or flasks were frozen at […] For titer determination, cells were thawed and then subjected to two more cycles of freezing and thawing at 37° C. Serial, one-logarithm10 dilutions of the final suspension were prepared and inoculated onto new cultures of HFF cells. Titer determination was as detailed above in part (1) (b).
as §2

Data set [4] has as its system HCMV. Description: HCMV titer, plaque or yield reduction. Format: cell-based, human cytomegalovirus (Towne strain) in HFF cells.
Description: as §3, §4, §5, §6, §2

Data set [5] in a line: in vitro. Format: cell-based, human. The conditions noted are these: human, kb cells. The method, then:
(§7) KB or HFF cells were planted using a Costar Transplate-96 (Costar, Cambridge, Mass.) in Costar 96-well cluster dishes at a concentration of 10,000 to 12,000 cells per well. Wells were suspended in 200 μl of medium [MDM(H) plus 0.7 gm/liter NaCHO3 supplemented with 10% calf serum] per well. After incubation of 16 to 24 hours at 37° C. in a humidified atmosphere of 4% CO2 in air, […] of medium was removed per well. One-hundred μl of medium with or without compounds in twice their final concentrations was added to each well using a Titertek Multichannel Pipette. Final concentrations of compounds ranged from 0.1 to 320 μM. Fifty μl of medium containing radioactive precursors also was added to each well to give a final concentration to 1 to 3 μCi/ml of labeled precursor. [^3 H]Thd was diluted with unlabeled dThd to give a final concentration of 3 or 6 μM.
(§8) Logarithmic cell growth occurred during this time with continual uptake of labeled precursors. At the end of the incubation period, cells were individually harvested from each well using a Skatron Cell harvester (Skatronh, Inc., Sterling, Va.). Cultures for individual wells were harvested onto filter paper and washed free of unincorporated label with nine sequential washes with 5% trichloroacetic acid, nine washes with water, and nine with ethanol using the Skatron unit. Filters were dried, circles from individual cultures were punched from the filter mat and placed into mini-vials. Liquid scintillation solution was added, and radioactivity determined in a Beckman model LS8100 liquid scintillation spectrometer. All samples were counted for 2.0 minutes each, with three rounds of counting. Counts per minute were determined following the application of statistical methods to eliminate count rates which fell outside distribution limits defined by Chauvenet's rejection criterion.
(§9) All analyses were performed in triplicate. That is, three culture wells were used per time point, radioactive precursor, and drug concentration in all experiments. Results from triplicate assays were converted to percent of control and plotted as log dose-response curves from which 50% inhibitor (I50) concentrations were interpolated. Three concentrations of vidarabine were included on all plates as a positive control.
as §2

Data set [6] deals with KB cells. The experiment in a line: cells. The following applies: Homo sapiens; [3H]dThd incorporation, KB cells; read-out: I50 on [3H]dThd incorporation. Format: cell-based, human. The method, then: as §7, §8, §9, §2
Data set [7] in a line: Visual cytotoxicity scoring in BSC-1 cells. The conditions noted are these: african green monkey, Table 1, at time of HSV-1 plaque enumeration, read-out: 50% Inhibitory Concentration Cytotoxicity BSC (visual). Format: cell-based.
Description: as §1, §2

Data set [8] concerns HSV-1. The experiment in a line: HSV-1 plaque reduction assay, strain S148. The following applies: Human alphaherpesvirus 1; Table 1; strain S148; BSC-1 cells; read-out: 50% Inhibitory Concentration HSV-1 Plaque. Format: cell-based, herpes simplex virus type 1 (strain S148) in BSC-1 cells.
Description: as §3
HSV-1 was titered using monolayer cultures of BSC-1 cells. Cells were planted at 3×10^5 cells/well using 6-well cluster dishes. MEM(E) supplemented with 10% fetal bovine serum was employed as medium. After 22-24 hours, cells were 90% confluent and were inoculated in triplicate using at least three ten-fold dilutions with 0.2 ml of the virus suspension to be assayed and incubated in a humidified 4% CO2 […] atmosphere for one hour to permit viral adsorption. Following virus adsorption, the cell sheet was overlayed with 5 ml of MEM(E) with 5% serum plus 0.5% methocel (4000 CPS) and incubated an additional two to three days. Cells were fixed and stained with 0.1% crystal violet in 20% methanol and macroscopic plaques enumerated.
Plaque reduction experiments were HSV-1 were performed using monolayer cultures of BSC-1 cells. The assay was performed exactly as described above except that the 0.2 ml virus suspension contained approximately 100 p.f.u. of HSV-1. Compounds to be tested were dissolved in the overlay medium at concentrations usually ranging from 0.1 to 100 μM in half-or-one logarithm10 dilutions. Titer reduction assays were performed by planting KB cells in 25 cm^2 plastic tissue culture flasks 10 to 24 hours prior to infection. At the onset of experiments, logarithmically growing replicate monolayer cultures were 60 to 80% confluent and contained 2.5 to 4.5×10^6 cells/flask. Medium was decanted and the cultures were infected with 2 to 10 p.f.u. of HSV-1 per cell. Virus was contained in 1.0 ml of VGM supplemented with 5% fetal bovine serum. After a 1 hour adsorption period at […], the cell sheet was rinsed twice with 2 ml of VGM without serum to remove unadsorbed virus and 5 ml of VGM containing drugs at three to five selected concentrations added in duplicate. Following an 18- to 22-hour incubation at 37° C., infected monolayers were treated with EDTA-trypsin to suspend the cells; aliquots were removed, subjected to three cycles of freezing and thawing, and stored at -76° C. for subsequent virus assay. Virus was titered on BSC-1 cells as described above.
as §2
Background: Plaques are areas of infected cells; plaque reduction assays count them against a control.

A short description of data set [9]: Growth of KB cells (population doubling times). The conditions noted are these: human, kb cells; 100 μM; read-out: reduction of KB cell growth rate. Format: cell-based, human. As for the experimental part: (§10) Population doubling times and cell viability were measured in uninfected HFF and/or KB cells. Cells were planted in replicate 6-well plastic tissue culture dishes or in 25 cm^2 flasks as described above in part 1. Following an incubation period during which cells attached to the substrate, medium was decanted, the cell sheet rinsed once with HBS, and fresh medium added. The medium consisted of MEM(E) with 1.1 gm NaHCO3 /liter and 10% fetal bovine or calf serum plus appropriate log or half-log concentrations of drug. After additional periods of incubation from 1 to 72 hours at 37° C., cells were harvested by means of 0.05% trypsin plus 0.02% EDTA in a HEPES-buffered salt solution. Cells were enumerated using either a Coulter counter or a hemocytometer and viability determining using trypsan blue dye exclusion.
(§11) In more extensive cytotoxicity testing, the halogenated compounds were tested for effects on the growth of KB cells. Populations doubling times were calculated from the logarithmic portions of growth curves and were as follows: […]

The subject of data set [10] is KB cells. Description: Growth of KB cells (population doubling times). Format: cell-based, human. The method, then:
as §10, §11

Data set [11] concerns viruses. The following applies: cited from earlier work.

Turning to `OCC(CO)OCn1cc(Cl)c2c(NO)ncnc21` [UMJD 328, 4-hydroxylamino-5-chloro-7-[(1,3-dihydroxy-2-propoxy)methyl]pyrrolo[2,3-d]pyrimidine], the CC50 in [1] is greater than 100 µM. Moreover, in data set [2], the IC50 was determined as 56 µM. For the same compound, the IC90 in data set [3] amounted to 24 µM. For the same compound, the “activity against HCMV (in words)” value in data set [4] is “active and nearly as potent as the 4-amino analogs”.
As for `NC(=S)c1cn(COC(CO)CO)c2ncnc(N)c12` [UMJD 239, 4-Amino-7-[(1,3-dihydroxy-2-propoxy)methyl]pyrrolo[2,3-d]-pyrimidine-5-thiocarboxamide], the CC50 in data set [1], in [5] and in data set [7] was greater than 100 µM throughout. Moreover, the IC50 in [2] is 8 µM; in data set [6] it was 28 µM; in data set [8], greater than 100 µM. For the same compound, the IC90 in data set [3] came out at 25 µM.
`NC(=S)c1cn(COCCO)c2ncnc(N)c12` [UMJD 229, 4-Amino-7-(2-hydroxyethoxymethyl)pyrrolo[2,3-d]pyrimidine-5-thiocarboxamide]: the CC50 in data set [1] was 100 µM; in data set [5], greater than 100 µM; in data set [7] it was greater than 100 µM. The IC50 was 11 µM in [2], 10 µM in data set [6] and greater than 100 µM in [8]. The IC90 in data set [3] was found to be 80 µM. Moreover, the “activity against HCMV (in words)” value in [4] was “active”.
As for `OCC(CO)OCn1cc(I)c2c(NO)ncnc21` [UMJD 329, 4-hydroxylamino-5-iodo-7-[(1,3-dihydroxy-2-propoxy)methyl]pyrrolo[2,3-d]pyrimidine], in data set [1], the CC50 was greater than 100 µM. The IC50 in data set [2] was found to be 18 µM. For the same compound, the inhibition at 100 µM in data set [9] is greater than 50%. Besides, the “KB cell growth rate (in words)” value in [10] (10 μM) is given as “nearly control rates”. Further, in data set [10] (comparison with UMJD 102 / UMJD 183), the “effect on KB cell growth (in words)” value is listed as “considerably lesser effects on cell growth”. For the same compound, the IC90 in data set [3] came to 3.2 µM. Further, the “activity against HCMV (in words)” value in [4] was “active and nearly as potent as the 4-amino analogs”.
For `NC(=O)c1cn([C@@H]2O[C@H](CO)[C@@H](O)[C@H]2O)c2ncnc(N)c12` [sangivamycin], the “antiviral activity previously reported” value in [11] is on record as “Broad spectrum antiviral activity”.
Take `Nc1ncnc2c1c(I)cn2COC(CO)CO` [UMJD 330, 4-amino-5-iodo-7-[(1,3-dihydroxy-2-propoxy)methyl]-pyrrolo[2,3-d]pyrimidine]: the CC50 in data set [1] was greater than 100 µM. Further, the IC50 in data set [2] is 3.1 µM. In addition, the log reduction at 100 µM in data set [3] (FIG. 2, 10-fold higher concentration than UMJD 183 (10 μM)) amounted to 5. Moreover, in [3], the IC90 turned out to be 0.9 µM.
`N#Cc1cn([C@@H]2O[C@H](CO)[C@@H](O)[C@H]2O)c2ncnc(N)c12` [toyocamycin]: in data set [11], the “antiviral activity previously reported” value is “Broad spectrum antiviral activity”.
In the case of `Nc1ncnc2c1ccn2[C@@H]1O[C@H](CO)[C@@H](O)[C@H]1O` [tubercidin], the “antiviral activity previously reported” value in [11] is “Broad spectrum antiviral activity”.
